8 compounds from patent US9247741B2, “Use of macrocyclic picolinamides as fungicides” (DOW AGROSCIENCES LLC, priority 2013, dated 2016) can be followed below.

Assay type in all cases: in vivo
Assay [1] concerns Mycosphaerella graminicola; Anamorph: Septoria tritici. The assay is described as follows: Leaf blotch of wheat (SEPTTR) disease control on wheat seedlings. The note with it: Zymoseptoria tritici, wheat; for pest or weed control at 121.5 g/ha: 121.5 g/H (low volume track spray); for pest or weed control at 100 ppm: 100 ppm (high volume). The procedure: Evaluation of Fungicidal Activity: Leaf Blotch of Wheat (Mycosphaerella graminicola; Anamorph: Septoria tritici; Bayer Code […]) Technical grades of materials were dissolved in acetone, which were then mixed with nine volumes of water containing 110 ppm Triton X-100. The fungicide solutions were applied onto wheat seedlings using an automated booth sprayer to run-off. All sprayed plants were allowed to air dry prior to further handling. All fungicides were evaluated using the aforementioned method for their activity vs. all target diseases. Wheat leaf blotch and brown rust activity were also evaluated using track spray applications, in which case the fungicides were formulated as EC formulations, containing 0.1% Trycol 5941 in the spray solutions. Wheat plants (variety Yuma) were grown from seed in a greenhouse in 50% mineral soil/50% soil-less Metro mix until the first leaf was fully emerged, with 7-10 seedlings per pot. These plants were inoculated with an aqueous spore suspension of Septoria tritici either prior to or after fungicide treatments. After inoculation the plants were kept in 100% relative humidity (one day in a dark dew chamber followed by two to three days in a lighted dew chamber at 20° C.) to permit spores to germinate and infect the leaf. The plants were then transferred to a greenhouse set at 20° C. for disease to develop. When disease symptoms were fully expressed on the l^st leaves of untreated plants, infection levels were assessed on a scale of 0 to 100 percent disease severity. Percent disease control was calculated using the ratio of disease severity on treated plants relative to untreated plants.

The test system of assay [2] is Puccinia triticina. Briefly: Wheat brown rust (PUCCRT) disease control on wheat seedlings. The note with it: for pest or weed control at 121.5 g/ha: 121.5 g/H (low volume track spray); for pest or weed control at 100 ppm: 100 ppm (high volume). Here is the method: Technical grades of materials were dissolved in acetone, which were then mixed with nine volumes of water containing 110 ppm Triton X-100. The fungicide solutions were applied onto wheat seedlings using an automated booth sprayer to run-off. All sprayed plants were allowed to air dry prior to further handling. All fungicides were evaluated using the aforementioned method for their activity vs. all target diseases. Wheat leaf blotch and brown rust activity were also evaluated using track spray applications, in which case the fungicides were formulated as EC formulations, containing 0.1% Trycol 5941 in the spray solutions. Wheat plants (variety Yuma) were grown from seed in a greenhouse in 50% mineral soil/50% soil-less Metro mix until the first leaf was fully emerged, with 7-10 seedlings per pot. These plants were inoculated with an aqueous spore suspension of Septoria tritici either prior to or after fungicide treatments. After inoculation the plants were kept in 100% relative humidity (one day in a dark dew chamber followed by two to three days in a lighted dew chamber at 20° C.) to permit spores to germinate and infect the leaf. The plants were then transferred to a greenhouse set at 20° C. for disease to develop. When disease symptoms were fully expressed on the l^st leaves of untreated plants, infection levels were assessed on a scale of 0 to 100 percent disease severity. Percent disease control was calculated using the ratio of disease severity on treated plants relative to untreated plants. Evaluation of Fungicidal Activity: Wheat Brown Rust (Puccinia triticina; Synonym: Puccinia recondite f sp. tritici; Bayer code PUCCRT) Wheat plants (variety Yuma) were grown from seed in a greenhouse in 50% mineral soil/50% soil-less Metro mix until the first leaf was fully emerged, with 7-10 seedlings per pot. These plants were inoculated with an aqueous spore suspension of Puccinia triticina either prior to or after fungicide treatments. After inoculation the plants were kept in a dark dew room at 22° C. with 100% relative humidity overnight to permit spores to germinate and infect the leaf. The plants were then transferred to a greenhouse set at 24° C. for disease to develop. Fungicide formulation, application and disease assessment followed the procedures as described in the Example A.

Assay [3] has as its system Uncinula necator. Briefly: Grape powdery mildew (UNCINE) disease control. The settings on record: Erysiphe necator, 24 h, 1 Day Protectant, read-out: UNCINE disease control rating. The procedure:
Technical grades of materials were dissolved in acetone, which were then mixed with nine volumes of water containing 110 ppm Triton X-100. The fungicide solutions were applied onto wheat seedlings using an automated booth sprayer to run-off. All sprayed plants were allowed to air dry prior to further handling. All fungicides were evaluated using the aforementioned method for their activity vs. all target diseases. Wheat leaf blotch and brown rust activity were also evaluated using track spray applications, in which case the fungicides were formulated as EC formulations, containing 0.1% Trycol 5941 in the spray solutions. Wheat plants (variety Yuma) were grown from seed in a greenhouse in 50% mineral soil/50% soil-less Metro mix until the first leaf was fully emerged, with 7-10 seedlings per pot. These plants were inoculated with an aqueous spore suspension of Septoria tritici either prior to or after fungicide treatments. After inoculation the plants were kept in 100% relative humidity (one day in a dark dew chamber followed by two to three days in a lighted dew chamber at 20° C.) to permit spores to germinate and infect the leaf. The plants were then transferred to a greenhouse set at 20° C. for disease to develop. When disease symptoms were fully expressed on the l^st leaves of untreated plants, infection levels were assessed on a scale of 0 to 100 percent disease severity. Percent disease control was calculated using the ratio of disease severity on treated plants relative to untreated plants. Evaluation of Fungicidal Activity: Grape Powdery Mildew (Uncinula necator; Bayer Code […]) Grape seedlings (variety Carignane) were grown in soil-less Metro mix, with one plant per pot, and used in the test when approximately one month old. Plants were inoculated 24 hr after fungicide treatment by shaking spores from infected leaves over test plants. Plants were maintained in a greenhouse set at 20° C. until disease was fully developed. Fungicide formulation, application and disease assessment on the sprayed leaves followed the procedures as described in the Example A.

Where [4] appears, read: 24 h, 1 Day Protectant, read-out: SEPTTR 1DP disease control rating.
Setting [5] is: 72 h, 3 Day Curative, read-out: SEPTTR 3DC disease control rating.
The mark [6] stands for this setting: 24 h, 1 Day Protectant, read-out: PUCCRT 1DP disease control rating.
[7] abbreviates: 72 h, 3 Day Curative, read-out: PUCCRT 3DC disease control rating.

Like-named read-outs stand apart in the source and are kept apart here.

`CCCO[C@H]1CCC[C@H](NC(=O)c2nccc(OC)c2OCOC(C)=O)C(=O)O[C@@H](C)[C@@H]1CCC(C)C` [Compound 25, ((2-(((3S,7S,8S,9S)-8-isopentyl-9-methyl-2-oxo-7-propoxyoxonan-3-yl)carbamoyl)-4-methoxypyridin-3-yl)oxy)methyl acetate]: the pest or weed control at 121.5 g/ha is less than 70% in assay [1] (setting [4]), more than 70% in assay [1] (setting [5]), more than 70% in assay [2] (setting [6]) and more than 70% in assay [2] (setting [7]). The pest or weed control at 100 ppm in assay [3] was more than 70%.
For the compound `CCCC[C@H]1[C@H](C)OC(=O)[C@@H](NC(=O)c2nccc(OC)c2OCOC(C)=O)CCC[C@@H]1Oc1ccccc1` [Compound 33], the pest or weed control at 121.5 g/ha in assay [1] (setting [4]), in assay [1] (setting [5]), in assay [2] (setting [6]) and in assay [2] (setting [7]) was more than 70% in each case. The pest or weed control at 100 ppm in assay [3] was more than 70%.
Regarding `COc1ccnc(C(=O)N[C@H]2CCC[C@H](Oc3ccccc3)[C@@H](CCC(C)C)[C@H](C)OC2=O)c1OC(C)=O` [Compound 36], the pest or weed control at 121.5 g/ha is more than 70% in assay [1] (setting [4]), more than 70% in assay [1] (setting [5]), more than 70% in assay [2] (setting [6]) and less than 70% in assay [2] (setting [7]). Further, the pest or weed control at 100 ppm in assay [3] was more than 70%.
Regarding `COc1ccnc(C(=O)N[C@H]2CCC[C@H](Oc3ccccc3)[C@@H](CCC(C)C)[C@H](C)OC2=O)c1OCOC(C)=O` [Compound 40], the pest or weed control at 121.5 g/ha in assay [1] (setting [4]), in assay [1] (setting [5]), in assay [2] (setting [6]) and in assay [2] (setting [7]) was more than 70% each time. The pest or weed control at 100 ppm in assay [3] is more than 70%.
On to `COc1ccnc(C(=O)N[C@H]2CCC[C@H](OCC3CC3)[C@@H](Cc3ccc(F)cc3)[C@H](C)OC2=O)c1OCOC(C)=O` [Compound 61], for which the pest or weed control at 121.5 g/ha in assay [1] (setting [4]), in assay [1] (setting [5]), in assay [2] (setting [6]) and in assay [2] (setting [7]) was more than 70% in each case. In addition, the pest or weed control at 100 ppm in assay [3] was more than 70%.
Consider `CCCO[C@H]1CCC[C@H](NC(=O)c2nccc(OC)c2OC(C)=O)C(=O)O[C@@H](C)[C@@H]1Cc1ccccc1` [Compound 70], for which the pest or weed control at 100 ppm in assay [1] (setting [4]), in assay [1] (setting [5]), in assay [2] (setting [6]), in assay [2] (setting [7]) and in assay [3] was more than 70% in each case. The pest or weed control at 121.5 g/ha in assay [1] (setting [4]), in assay [1] (setting [5]), in assay [2] (setting [6]) and in assay [2] (setting [7]) was more than 70% each time.
In the case of `CCCC[C@H]1[C@H](C)OC(=O)[C@@H](NC(=O)c2nccc(OC)c2OCOC(C)=O)CCC[C@@H]1OCC1CC1` [Compound 73], the pest or weed control at 121.5 g/ha in assay [1] (setting [4]), in assay [1] (setting [5]), in assay [2] (setting [6]) and in assay [2] (setting [7]) was more than 70% in each case. For the same compound, the pest or weed control at 100 ppm in assay [3] is more than 70%.
`CCCO[C@H]1CCC[C@H](NC(=O)c2nccc(OC)c2OC(C)=O)C(=O)O[C@@H](C)[C@@H]1CCC(C)C` [Compound 74, 2-(((3S,7S,8S,9S)-8-isopentyl-9-methyl-2-oxo-7-propoxyoxonan-3-yl)carbamoyl)-4-methoxypyridin-3-yl acetate]: the pest or weed control at 121.5 g/ha in assay [1] (setting [4]), in assay [1] (setting [5]), in assay [2] (setting [6]) and in assay [2] (setting [7]) was more than 70% in each case. Further, in assay [3], the pest or weed control at 100 ppm is more than 70%.
